pIC50: −log10 of the molar value.
System: 422866-222-R5-J1-PDC complex spheroids viability
Assay: Anticancer human tumor 422866-222-R5-J1-PDC patient-derived pancreatic adenocarcinoma cell line growth inhibition [RAS]
Settings: for pIC50: curve of first compound; for viability, T/C: stronger effect = lower value; active = viability on the fitted dose curve at most 10% of control; inactive = the rest
Outline: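 Tumour cells grown as complex spheroids with HUVEC endothelial cells and mesenchymal stem cells, treated with RAS pathway inhibitor combinations. Each agent spans half-log steps from near clinical Cmax, or 10 microM where Cmax is unknown.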

[1] = second compound 0.00316 µM, first compound 0.0316 µM
[2] = second compound 0.00316 µM, first compound 0.1 µM
[3] = second compound 0.00316 µM, first compound 0.316 µM
[4] = second compound 0.00316 µM, first compound 1 µM
[5] = second compound 0.01 µM, first compound 0.0316 µM
[6] = second compound 0.01 µM, first compound 0.1 µM
[7] = second compound 0.01 µM, first compound 0.316 µM
[8] = second compound 0.01 µM, first compound 1 µM
[9] = second compound 0.0316 µM, first compound 0.0316 µM
[10] = second compound 0.0316 µM, first compound 0.1 µM
[11] = second compound 0.0316 µM, first compound 0.316 µM
[12] = second compound 0.0316 µM, first compound 1 µM
[13] = second compound 0.1 µM, first compound 0.0316 µM
[14] = second compound 0.1 µM, first compound 0.1 µM
[15] = second compound 0.1 µM, first compound 0.316 µM
[16] = second compound 0.1 µM, first compound 1 µM
[17] = second compound 0.316 µM, first compound 0.0316 µM
[18] = second compound 0.316 µM, first compound 0.1 µM
[19] = second compound 0.316 µM, first compound 0.316 µM
[20] = second compound 0.316 µM, first compound 1 µM
[21] = second compound 1 µM, first compound 0.0316 µM
[22] = second compound 1 µM, first compound 0.1 µM
[23] = second compound 1 µM, first compound 0.316 µM
[24] = second compound 1 µM, first compound 1 µM
[25] = second compound 0.00316 µM, first compound 0.000949 µM
[26] = second compound 0.00316 µM, first compound 0.003 µM
[27] = second compound 0.00316 µM, first compound 0.00949 µM
[28] = second compound 0.00316 µM, first compound 0.03 µM
[29] = second compound 0.00316 µM, first compound 0.0949 µM
[30] = second compound 0.00316 µM, first compound 0.3 µM
[31] = second compound 0.01 µM, first compound 0.000949 µM
[32] = second compound 0.01 µM, first compound 0.003 µM
[33] = second compound 0.01 µM, first compound 0.00949 µM
[34] = second compound 0.01 µM, first compound 0.03 µM
[35] = second compound 0.01 µM, first compound 0.0949 µM
[36] = second compound 0.01 µM, first compound 0.3 µM
[37] = second compound 0.0316 µM, first compound 0.000949 µM
[38] = second compound 0.0316 µM, first compound 0.003 µM
[39] = second compound 0.0316 µM, first compound 0.00949 µM
[40] = second compound 0.0316 µM, first compound 0.03 µM
[41] = second compound 0.0316 µM, first compound 0.0949 µM
[42] = second compound 0.0316 µM, first compound 0.3 µM
[43] = second compound 0.1 µM, first compound 0.000949 µM
[44] = second compound 0.1 µM, first compound 0.003 µM
[45] = second compound 0.1 µM, first compound 0.00949 µM
[46] = second compound 0.1 µM, first compound 0.03 µM
[47] = second compound 0.1 µM, first compound 0.0949 µM
[48] = second compound 0.1 µM, first compound 0.3 µM
[49] = second compound 0.316 µM, first compound 0.000949 µM
[50] = second compound 0.316 µM, first compound 0.003 µM
[51] = second compound 0.316 µM, first compound 0.00949 µM
[52] = second compound 0.316 µM, first compound 0.03 µM
[53] = second compound 0.316 µM, first compound 0.0949 µM
[54] = second compound 0.316 µM, first compound 0.3 µM
[55] = second compound 1 µM, first compound 0.000949 µM
[56] = second compound 1 µM, first compound 0.003 µM
[57] = second compound 1 µM, first compound 0.00949 µM
[58] = second compound 1 µM, first compound 0.03 µM
[59] = second compound 1 µM, first compound 0.0949 µM
[60] = second compound 1 µM, first compound 0.3 µM
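Also: spheroids exposed to compounds for 7 days.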
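For viability, T/C in this document: 100% = DMSO vehicle control viability.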

CC(=O)OC12COC1CC(O)C1(C)C(=O)C(O)C3=C(C)C(OC(=O)C(O)C(NC(=O)OC(C)(C)C)c4ccccc4)CC(O)(C(OC(=O)c4ccccc4)C21)C3(C)C (stereo not drawn) + C=CC(=O)N1CCN(c2nc(OCC3CCCN3C)nc3c(F)c(-c4nc(N)cc(C)c4C(F)(F)F)c(Cl)cc23)C(C)C1
> 7.50: pIC50 (second compound 0.00316 µM) | pIC50 (second compound 0.01 µM) | pIC50 (second compound 0.0316 µM) | pIC50 (second compound 0.1 µM) | pIC50 (second compound 0.316 µM) | pIC50 (second compound 1 µM)
inactive: viability, T/C [1] 19.5% | viability, T/C [2] 21.1% | viability, T/C [3] 26.7% | viability, T/C [4] 22% | viability, T/C (second compound 0.00316 µM, first compound 3.16 µM) 19.1% | viability, T/C (second compound 0.00316 µM, first compound 10 µM) 26% | viability, T/C [5] 21.5% | viability, T/C [6] 20.8% | viability, T/C [7] 20.4% | viability, T/C [8] 17.6% | viability, T/C (second compound 0.01 µM, first compound 3.16 µM) 20.4% | viability, T/C (second compound 0.01 µM, first compound 10 µM) 19.6% | viability, T/C [9] 17.9% | viability, T/C [10] 20.8% | viability, T/C [11] 19.3% | viability, T/C [12] 17% | viability, T/C (second compound 0.0316 µM, first compound 3.16 µM) 21.2% | viability, T/C (second compound 0.0316 µM, first compound 10 µM) 20.9% | viability, T/C [13] 17.3% | viability, T/C [14] 21% | viability, T/C [15] 18.1% | viability, T/C [16] 19.2% | viability, T/C (second compound 0.1 µM, first compound 3.16 µM) 22.5% | viability, T/C (second compound 0.1 µM, first compound 10 µM) 22.5% | viability, T/C [17] 15.3% | viability, T/C [18] 17.8% | viability, T/C [19] 19.5% | viability, T/C [20] 17.6% | viability, T/C (second compound 0.316 µM, first compound 3.16 µM) 18.4% | viability, T/C (second compound 0.316 µM, first compound 10 µM) 23.3% | viability, T/C [21] 16.6% | viability, T/C [22] 17.7% | viability, T/C [23] 22.7% | viability, T/C [24] 20% | viability, T/C (second compound 1 µM, first compound 3.16 µM) 22.3% | viability, T/C (second compound 1 µM, first compound 10 µM) 22.6%

CC1(C)CCC(Nc2ncc(C(F)(F)F)c(-c3c[nH]c4c(P(C)(C)=O)c(C#N)ccc34)n2)CN1 (stereo not drawn) + C=CC(=O)N1CCN(c2nc(OCC3CCCN3C)nc3c(F)c(-c4nc(N)cc(C)c4C(F)(F)F)c(Cl)cc23)C(C)C1
inactive: viability, T/C [25] 27.1% | viability, T/C [26] 29.2% | viability, T/C [27] 25.8% | viability, T/C [28] 25.1% | viability, T/C [29] 27.3% | viability, T/C [30] 28.8% | viability, T/C [31] 23.1% | viability, T/C [32] 20.7% | viability, T/C [33] 28.3% | viability, T/C [34] 24.7% | viability, T/C [35] 26.8% | viability, T/C [36] 28.3% | viability, T/C [37] 24.6% | viability, T/C [38] 24.4% | viability, T/C [39] 22.2% | viability, T/C [40] 23.3% | viability, T/C [41] 27.2% | viability, T/C [42] 27.4% | viability, T/C [43] 24.6% | viability, T/C [44] 22.3% | viability, T/C [45] 25.5% | viability, T/C [46] 23.4% | viability, T/C [47] 26.6% | viability, T/C [48] 27.6% | viability, T/C [49] 20% | viability, T/C [50] 20.3% | viability, T/C [51] 25.5% | viability, T/C [52] 24.6% | viability, T/C [53] 25.8% | viability, T/C [54] 24.5% | viability, T/C [55] 22.1% | viability, T/C [56] 22.3% | viability, T/C [57] 21.1% | viability, T/C [58] 24.2% | viability, T/C [59] 30.4% | viability, T/C [60] 26.2%
> 9.02: pIC50 (second compound 0.00316 µM) | pIC50 (second compound 0.01 µM) | pIC50 (second compound 0.0316 µM) | pIC50 (second compound 0.1 µM) | pIC50 (second compound 0.316 µM) | pIC50 (second compound 1 µM)

CCc1c2c(nc3ccc(O)cc13)-c1cc3c(c(=O)n1C2)COC(=O)[C@]3(O)CC + C=CC(=O)N1CCN(c2nc(OCC3CCCN3C)nc3c(F)c(-c4nc(N)cc(C)c4C(F)(F)F)c(Cl)cc23)C(C)C1
inactive: viability, T/C [25] 25.3% | viability, T/C [26] 21.1% | viability, T/C [27] 15.8% | viability, T/C [28] 15.9% | viability, T/C [29] 15.2% | viability, T/C [30] 11.3% | viability, T/C [31] 24.9% | viability, T/C [32] 20.7% | viability, T/C [33] 18.1% | viability, T/C [34] 18.3% | viability, T/C [35] 12.9% | viability, T/C [36] 10.9% | viability, T/C [37] 25.3% | viability, T/C [38] 18.3% | viability, T/C [39] 16.8% | viability, T/C [40] 14.8% | viability, T/C [41] 15.4% | viability, T/C [42] 15.6% | viability, T/C [43] 21.8% | viability, T/C [44] 15.9% | viability, T/C [45] 15.4% | viability, T/C [46] 16.2% | viability, T/C [47] 14.6% | viability, T/C [48] 10.9% | viability, T/C [49] 19.1% | viability, T/C [50] 17.5% | viability, T/C [51] 15.6% | viability, T/C [52] 14.2% | viability, T/C [53] 12.8% | viability, T/C [54] 12.3% | viability, T/C [55] 17% | viability, T/C [56] 16% | viability, T/C [57] 17.1% | viability, T/C [58] 14% | viability, T/C [59] 14.4% | viability, T/C [60] 13.1%
> 9.02: pIC50 (second compound 0.00316 µM) | pIC50 (second compound 0.01 µM) | pIC50 (second compound 0.0316 µM) | pIC50 (second compound 0.1 µM) | pIC50 (second compound 0.316 µM) | pIC50 (second compound 1 µM)

Nc1ccn(C2OC(CO)C(O)C2(F)F)c(=O)n1 (stereo not drawn) + C=CC(=O)N1CCN(c2nc(OCC3CCCN3C)nc3c(F)c(-c4nc(N)cc(C)c4C(F)(F)F)c(Cl)cc23)C(C)C1
inactive: viability, T/C (second compound 0.00316 µM, first compound 0.00316 µM) 25.5% | viability, T/C (second compound 0.00316 µM, first compound 0.01 µM) 26.6% | viability, T/C [1] 21.8% | viability, T/C [2] 18.7% | viability, T/C [3] 14.8% | viability, T/C [4] 14.9% | viability, T/C (second compound 0.01 µM, first compound 0.00316 µM) 26.6% | viability, T/C (second compound 0.01 µM, first compound 0.01 µM) 22.7% | viability, T/C [5] 21.7% | viability, T/C [6] 15.7% | viability, T/C [7] 15.3% | viability, T/C [8] 17% | viability, T/C (second compound 0.0316 µM, first compound 0.00316 µM) 27.5% | viability, T/C (second compound 0.0316 µM, first compound 0.01 µM) 19.9% | viability, T/C [9] 19.3% | viability, T/C [10] 16.9% | viability, T/C [11] 15.9% | viability, T/C [12] 14.1% | viability, T/C (second compound 0.1 µM, first compound 0.00316 µM) 21.9% | viability, T/C (second compound 0.1 µM, first compound 0.01 µM) 21.6% | viability, T/C [13] 18.6% | viability, T/C [14] 16.4% | viability, T/C [15] 14.8% | viability, T/C [16] 14.6% | viability, T/C (second compound 0.316 µM, first compound 0.00316 µM) 24.8% | viability, T/C (second compound 0.316 µM, first compound 0.01 µM) 20.4% | viability, T/C [17] 20% | viability, T/C [18] 18.1% | viability, T/C [19] 16.7% | viability, T/C [20] 17.4% | viability, T/C (second compound 1 µM, first compound 0.00316 µM) 22.9% | viability, T/C (second compound 1 µM, first compound 0.01 µM) 19.7% | viability, T/C [21] 19% | viability, T/C [22] 14.2% | viability, T/C [23] 18% | viability, T/C [24] 17.4%
> 8.50: pIC50 (second compound 0.00316 µM) | pIC50 (second compound 0.01 µM) | pIC50 (second compound 0.0316 µM) | pIC50 (second compound 0.1 µM) | pIC50 (second compound 0.316 µM) | pIC50 (second compound 1 µM)

— PubChem BioAssay AID2060901 (Molecular Pharmacology Branch, DTP, NCI, 2025)
